# Values of other authors in US7985432B2, “Insect repellent” (Bioniche Life Sciences, Inc., priority 2003, dated 2011).
# Test system: Mosquitoes
compound,measurement,value
CC1=COC(=O)C2C(C)CCC12 (stereo not shown) [Nepetalactone],Effectiveness at repelling mosquitoes relative to DEET,about ten times more effective at repelling mosquitoes than DEET
